Read-outs that look alike come from different tables or passages of the source.
Assays:
[1] = test system: MLKL phosphorylation in HT29-L23 human colorectal adenocarcinoma cells; experiment: MLKL Phosphorylation High-Content Assay; type: cell-based; conditions: Homo sapiens
In short: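 IC50 and Ymax obtained by 4-parameter logistic fitting of MLKL phosphorylation, measured as mean circ-ring average intensity ratio from high-content images. Staining used an anti-phospho-S358 MLKL antibody overnight at 4° C., following six-hour cell incubation at 37° C.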

[2] = target: T1, His-GST-TVMV-hRIPK1(1-324) (Homo sapiens, UniProt Q13546); experiment: RIPK1 HTRF Binding Assay
T1 construct: The coding region of human RIPK1(1-324) flanked by NdeI site at 5′ end; made in house; host or cells: Spodoptera frugiperda (Sf9) insect cells, baculovirus
T1 sequence (Q13546 1-324): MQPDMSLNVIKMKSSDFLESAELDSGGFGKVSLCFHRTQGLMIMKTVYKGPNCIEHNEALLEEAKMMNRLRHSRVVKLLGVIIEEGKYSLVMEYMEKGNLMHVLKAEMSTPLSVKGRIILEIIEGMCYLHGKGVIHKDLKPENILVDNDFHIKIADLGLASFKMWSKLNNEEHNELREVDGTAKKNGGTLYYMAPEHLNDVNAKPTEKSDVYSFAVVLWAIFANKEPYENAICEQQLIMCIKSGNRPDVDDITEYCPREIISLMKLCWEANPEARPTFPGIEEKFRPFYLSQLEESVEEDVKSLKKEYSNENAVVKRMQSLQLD

[3] = x marks IC50 class <20 nM, read-out: pMLKL cell activity <20 nM
[4] = x marks IC50 class <20 nM, read-out: RIPK1 HTRF binding <20 nM
[5] = x marks IC50 class 20-200 nM, read-out: pMLKL cell activity 20-200 nM
[6] = x marks IC50 class >200 nM, read-out: pMLKL cell activity >200 nM
[7] = x marks IC50 class 20-200 nM, read-out: RIPK1 HTRF binding 20-200 nM

## COc1ncc(-c2ccn3nc(N)nc3c2)cc1C(=O)NCc1ccccc1N1CCC(C)CC1 [Example 108, 5-{2-amino-[1,2,4]triazolo[1,5-a]pyridin-7-yl}-2-methoxy-N-{[2-(4-methylpiperidin-1-yl)phenyl]methyl}pyridine-3-carboxamide]
[1]; [3]
  IC50: < 20 nM
[2]; [4]
  IC50: < 20 nM

## COc1ncc(-c2ccn3nc(N)nc3c2)cc1C(=O)NCc1cc(F)ccc1OCC(F)(F)F [Example 339, 5-(2-amino-[1,2,4]triazolo[1,5-a]pyridin-7-yl)-N-(5-fluoro-2-(2,2,2-trifluoroethoxy)benzyl)-2-methoxynicotinamide]
[1]; [3]
  IC50: < 20 nM
[2]; [4]
  IC50: < 20 nM

## COc1nc(C)c(-c2ccn3nc(N)nc3c2)cc1C(=O)NCc1ncccc1OCC1CC1 [Example 33, 5-{2-Amino-[1,2,4]triazolo[1,5-a]pyridin-7-yl}-N-{[3-(cyclopropylmethoxy)pyridin-2-yl]methyl}-2-methoxy-6-methylpyridine-3-carboxamide]
[1]; [5]
  IC50: 20 to 200 nM
[2]; [4]
  IC50: < 20 nM

## Cc1ncc(-c2ccn3nc(N)nc3c2)cc1NC(=O)c1cnn(Cc2ccccc2)c1 [Example 412, N-(5-(2-amino-[1,2,4]triazolo[1,5-a]pyridin-7-yl)-2-methylpyridin-3-yl)-1-benzyl-1H-pyrazole-4-carboxamide]
[1]; [5]
  IC50: 20 to 200 nM
[2]; [4]
  IC50: < 20 nM

## CCOc1ccccc1CNC(=O)c1cc(-c2ccn3nc(N)nc3c2)cnc1OC [Example 153, 5-{2-amino-[1,2,4]triazolo[1,5-a]pyridin-7-yl}-N-[(2-ethoxyphenyl)methyl]-2-methoxypyridine-3-carboxamide]
[1]; [5]
  IC50: 20 to 200 nM
[2]; [4]
  IC50: < 20 nM

## Cc1ccc(-c2ccn3nc(N)nc3c2)nc1C(=O)NCc1cc(OC(F)(F)F)ccc1F [Example 405, 6-(2-amino-[1,2,4]triazolo[1,5-a]pyridin-7-yl)-N-(2-fluoro-5-(trifluoromethoxy)benzyl)-3-methylpicolinamide]
[1]; [6]
  IC50: > 200 nM
[2]; [7]
  IC50: 20 to 200 nM

## COc1nc(C)c(-c2ccn3nc(N)nc3c2)cc1C(=O)NC(C)c1cccc(OC(F)(F)F)c1 (stereo not drawn) [Example 223, 5-{2-amino-[1,2,4]triazolo[1,5-a]pyridin-7-yl}-2-methoxy-6-methyl-N-{1-[3-(trifluoromethoxy)phenyl]ethyl}pyridine-3-carboxamide]
[1]; [5]
  IC50: 20 to 200 nM
[2]; [4]
  IC50: < 20 nM

## [2H]C([2H])(NC(=O)c1cc(-c2ccn3nc(N)nc3c2)c(C)nc1C)c1cc(C(F)(F)F)ccc1F [Example 288, 5-(2-amino-[1,2,4]triazolo[1,5-a]pyridin-7-yl)-N-((2-fluoro-5-(trifluoromethyl)phenyl)methyl-d2)-2,6-dimethylnicotinamide]
[1]; [5]
  IC50: 20 to 200 nM
[2]; [4]
  IC50: < 20 nM

## Cc1nc(C)c(-c2ccn3nc(N)nc3c2)cc1C(=O)NCc1cccc(OCC2CC2)c1 [Example 176, 5-{2-amino-[1,2,4]triazolo[1,5-a]pyridin-7-yl}-N-{[3-(cyclopropylmethoxy)phenyl]methyl]-2,6-dimethylpyridine-3-carboxamide]
[1]; [6]
  IC50: > 200 nM
[2]; [7]
  IC50: 20 to 200 nM

## COc1nc(C)c(-c2ccn3nc(N)nc3c2)cc1C(=O)NCc1cc(F)cc(F)c1C(=O)N1CCC(F)(F)C1 [Example 380, 5-(2-amino-[1,2,4]triazolo[1,5-a]pyridin-7-yl)-N-(2-(3,3-difluoropyrrolidine-1-carbonyl)-3,5-difluorobenzyl)-2-methoxy-6-methylnicotinamide]
[1]; [3]
  IC50: < 20 nM
[2]; [4]
  IC50: < 20 nM

## COc1ncc(-c2ccn3nc(N)nc3c2)cc1C(=O)N1CCCC(Sc2ccccc2)C1 (stereo not drawn) [Example 424, (5-(2-amino-[1,2,4]triazolo[1,5-a]pyridin-7-yl)-2-methoxypyridin-3-yl)(3-(phenylthio)piperidin-1-yl)methanone]
[1]; [5]
  IC50: 20 to 200 nM
[2]; [7]
  IC50: 20 to 200 nM

## COc1ncc(-c2ccn3nc(N)nc3c2)nc1C(=O)NCc1cc(OC(F)(F)F)ccc1F [Example 384, 6-(2-amino-[1,2,4]triazolo[1,5-a]pyridin-7-yl)-N-(2-fluoro-5-(trifluoromethoxy)benzyl)-3-methoxypyrazine-2-carboxamide]
[1]; [6]
  IC50: > 200 nM
[2]; [7]
  IC50: 20 to 200 nM

## COc1nc(C)c(-c2ccn3nc(N)nc3c2)cc1C(=O)NCCc1cccc(OC(F)(F)F)c1 [Example 198, 5-{2-amino-[1,2,4]triazolo[1,5-a]pyridin-7-yl}-2-methoxy-6-methyl-N-{2-[3-(trifluoromethoxy)phenyl]ethyl}pyridine-3-carboxamide]
[1]; [6]
  IC50: > 200 nM
[2]; [7]
  IC50: 20 to 200 nM

## [2H]C([2H])([2H])Oc1ncc(-c2ccn3nc(N)nc3c2)cc1C(=O)NCc1cc(F)cc(F)c1OC([2H])([2H])C1CC1 [Example 283, 5-(2-amino-[1,2,4]triazolo[1,5-a]pyridin-7-yl)-N-(2-(cyclopropylmethoxy-d2)-3,5-difluorobenzyl)-2-(methoxy-H3)nicotinamide]
[1]; [3]
  IC50: < 20 nM
[2]; [4]
  IC50: < 20 nM

## COc1ncc(-c2ccn3nc(N)nc3c2)cc1C(=O)N1CCCC(Cc2ccc(Cl)cc2)C1 (stereo not drawn) [Example 117, 7-(5-{3-[(4-chlorophenyl)methyl]piperidine-1-carbonyl}-6-methoxypyridin-3-yl)-[1,2,4]triazolo[1,5-a]pyridin-2-amine]
[1]; [6]
  IC50: > 200 nM
[2]; [7]
  IC50: 20 to 200 nM

## COc1ccccc1[C@@H](C)NC(=O)c1cc(-c2ccn3nc(N)nc3c2)cnc1OC [Example 156, 5-{2-amino-[1,2,4]triazolo[1,5-a]pyridin-7-yl}-2-methoxy-N-[(1R)-1-(2-methoxyphenyl)ethyl]pyridine-3-carboxamide]
[1]; [6]
  IC50: > 200 nM
[2]; [7]
  IC50: 20 to 200 nM

## Cc1ncc(-c2ccn3nc(N)nc3c2)cc1C(=O)NCc1cccc(OCC(F)(F)F)c1 [Example 313, 5-(2-amino-[1,2,4]triazolo[1,5-a]pyridin-7-yl)-2-methyl-N-(3-(2,2,2-trifluoroethoxy)benzyl)nicotinamide]
[1]; [6]
  IC50: > 200 nM
[2]; [7]
  IC50: 20 to 200 nM

## CCOc1ncc(-c2ccn3nc(N)nc3c2)cc1C(=O)NCc1ccccc1S(=O)(=O)c1ccccc1CO [Example 270, 5-{2-amino-[1,2,4]triazolo[1,5-a]pyridin-7-yl}-2-ethoxy-N-({2-[2-(hydroxymethyl)benzenesulfonyl]phenyl}methyl)pyridine-3-carboxamide]
[1]; [5]
  IC50: 20 to 200 nM
[2]; [4]
  IC50: < 20 nM

## Cc1ncc(C(=O)NCc2cc(F)ccc2OCC2CCCC2)cc1-c1ccn2nc(N)nc2c1 [Example 262, 5-{2-amino-[1,2,4]triazolo[1,5-a]pyridin-7-yl}-N-{[2-(cyclopentylmethoxy)-5-fluorophenyl]methyl}-6-methylpyridine-3-carboxamide]
[1]; [5]
  IC50: 20 to 200 nM
[2]; [4]
  IC50: < 20 nM

## Cc1ncc(C(=O)NCc2cccnc2OCC2CCC2)cc1-c1ccn2nc(N)nc2c1 [Example 261, 5-{2-amino-[1,2,4]triazolo[1,5-a]pyridin-7-yl}-N-{[2-(cyclobutylmethoxy)pyridin-3-yl]methyl}-6-methylpyridine-3-carboxamide]
[1]; [6]
  IC50: > 200 nM
[2]; [7]
  IC50: 20 to 200 nM

## COc1nc(C)c(-c2ccn3nc(N)nc3c2)cc1C(=O)NCc1c(F)cc(F)cc1OCC1CCCC1 [Example 202, 5-{2-amino-[1,2,4]triazolo[1,5-a]pyridin-7-yl}-N-{[2-(cyclopentylmethoxy)-4,6-difluorophenyl]methyl}-2-methoxy-6-methylpyridine-3-carboxamide]
[1]; [5]
  IC50: 20 to 200 nM
[2]; [4]
  IC50: < 20 nM

Source: patent US10913738B2 (BRISTOL-MYERS SQUIBB COMPANY, priority 2017, dated 2021)
